According to BindingDB's records for doi:10.1016/0006-8993(87)90040-0 (St, Marianna University School of Medicine, 1987):

Molecular target: D(2) dopamine receptor (Rattus norvegicus, UniProt P61169)
Sequence (P61169 whole entry): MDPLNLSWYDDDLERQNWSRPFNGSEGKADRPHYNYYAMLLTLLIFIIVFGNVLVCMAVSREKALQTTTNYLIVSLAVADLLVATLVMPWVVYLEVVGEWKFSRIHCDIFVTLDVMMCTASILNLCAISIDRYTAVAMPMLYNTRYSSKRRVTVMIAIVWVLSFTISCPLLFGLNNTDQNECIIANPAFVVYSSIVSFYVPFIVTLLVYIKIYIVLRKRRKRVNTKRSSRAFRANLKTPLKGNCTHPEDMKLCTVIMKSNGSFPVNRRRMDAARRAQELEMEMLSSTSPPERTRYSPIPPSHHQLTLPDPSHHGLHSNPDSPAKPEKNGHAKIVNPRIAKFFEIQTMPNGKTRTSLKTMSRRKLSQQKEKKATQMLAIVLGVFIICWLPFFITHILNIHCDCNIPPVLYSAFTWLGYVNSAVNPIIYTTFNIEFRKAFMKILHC

| Structure (SMILES) | Ki [µM] |
| --- | --- |
| COc1ccc2c(c1)N(C[C@@H](C)CN(C)C)c1ccccc1S2 | 0.015 |
| CCN1CCC[C@H]1CNC(=O)c1cc(S(=O)(=O)CC)ccc1OC [Sultopride] | 0.0024 |
| CCN(CC)CCNC(=O)c1cc(S(C)(=O)=O)ccc1OC [CAS_51012-32-9] | 0.077 |

The remaining lines, values ahead:

| Ki [µM] | Structure (SMILES) |
| --- | --- |
| 8.79 | COc1cc2nc(N3CCN(C(=O)c4ccco4)CC3)nc(N)c2cc1OC [[3H]-Minipress] |
| 0.158 | COC(=O)[C@@H]1[C@H]2C[C@H]3c4[nH]c5ccccc5c4CCN3C[C@@H]2CC[C@@H]1O [yohimbic acid methyl ester] |
